Assay results: EP4700027A1, “CRYSTALLINE FORM OF NITROGEN-CONTAINING TETRACYCLIC COMPOUND AND PREPARATION METHOD THEREFOR” (Jiangsu Hengrui Pharmaceuticals Co., Ltd., priority 2023, dated 2024)
Each block holds one compound with its values, some of them ahead of it.

Tests used:
[1] = Influencing factor stability study on crystal forms (light, high temperature, high humidity, 30 days); type: physicochemical
[2] = Dynamic vapor sorption (DVS) hygroscopicity testing; type: physicochemical
Description: According to the description of hygroscopicity characteristics and the definitions of hygroscopic weight gains in "General Rule 9103, Guidelines for Hygroscopicity Trials for Pharmaceuticals" in the Chinese Pharmacopoeia, Volume IV, 2015 Edition, • deliquescent: sufficient water is absorbed to form a liquid; • extremely hygroscopic: the hygroscopic weight gain is not less than 15%; • hygroscopic: the hygroscopic weight gain is less than 15% but not less than 2%; • slightly hygroscopic: the hygroscopic weight gain is less than 2% but not less than 0.2%; nonhygroscopic or practically nonhygroscopic: the hygroscopic weight gain is less than 0.2%.
DVS refers to dynamic vapor sorption: The analysis was performed using SMS DVS Advantage; at 25 °C, the humidity was changed as follows: 50%-95%-0%-95%-50%, in steps of 10% (5% for the last step) (specific humidity ranges are shown in corresponding patterns, and those listed here were used in most cases); the criterion was dm/dt being not greater than 0.002%.

[3] = Light exposure (4500 Lux), 5 days
[4] = Light exposure (4500 Lux), 10 days
[5] = Light exposure (4500 Lux), 30 days

Color and state ([1]; 40 °C, 5 days): Off-white solid | Crystal form ([1]; 40 °C, 5 days): Did not change | Purity (%) ([1]; 40 °C, 5 days): 98.0% | Color and state ([1]; 40 °C, 10 days): Off-white solid | Crystal form ([1]; 40 °C, 10 days): Did not change | Purity (%) ([1]; 40 °C, 10 days): 97.6% | Color and state ([1]; 40 °C, 30 days): Off-white solid | Crystal form ([1]; 40 °C, 30 days): Did not change | Purity (%) ([1]; 40 °C, 30 days): 97.2% | Color and state ([1]; 60 °C, 5 days): Off-white solid | Crystal form ([1]; 60 °C, 5 days): Did not change | Purity (%) ([1]; 60 °C, 5 days): 98.0% | Color and state ([1]; 60 °C, 10 days): Off-white solid | Crystal form ([1]; 60 °C, 10 days): Did not change | Purity (%) ([1]; 60 °C, 10 days): 97.9% | Color and state ([1]; 60 °C, 30 days): Off-white solid | Crystal form ([1]; 60 °C, 30 days): Did not change | Purity (%) ([1]; 60 °C, 30 days): 97.5% | Color and state ([1]; 75% RH, 5 days): Off-white solid | Crystal form ([1]; 75% RH, 5 days): Did not change | Purity (%) ([1]; 75% RH, 5 days): 98.1% | Color and state ([1]; 75% RH, 10 days): Off-white solid | Crystal form ([1]; 75% RH, 10 days): Did not change | Purity (%) ([1]; 75% RH, 10 days): 98.1% | Color and state ([1]; 75% RH, 30 days): Off-white solid | Crystal form ([1]; 75% RH, 30 days): Did not change | Purity (%) ([1]; 75% RH, 30 days): 98.1% | Color and state ([1]; 92.5% RH, 5 days): Off-white solid | Crystal form ([1]; 92.5% RH, 5 days): Did not change | Purity (%) ([1]; 92.5% RH, 5 days): 98.1% | Color and state ([1]; 92.5% RH, 10 days): Off-white solid | Crystal form ([1]; 92.5% RH, 10 days): Did not change | Purity (%) ([1]; 92.5% RH, 10 days): 98.1% | Color and state ([1]; 92.5% RH, 30 days): Off-white solid | Crystal form ([1]; 92.5% RH, 30 days): Did not change | Purity (%) ([1]; 92.5% RH, 30 days): 98.1% | Color and state ([1]; Initial, 0 days): Off-white solid | Crystal form ([1]; Initial, 0 days): Crystal form C | Purity (%) ([1]; Initial, 0 days): 98.2% | Color and state [1, 3]: Off-white solid | Crystal form [1, 3]: Did not change | Purity (%) [1, 3]: 98.0% | Color and state [1, 4]: Off-white solid | Crystal form [1, 4]: Did not change | Purity (%) [1, 4]: 97.9% | Color and state [1, 5]: Off-white solid | Crystal form [1, 5]: Did not change | Purity (%) [1, 5]: 97.5%
SMILES: C=CC(=O)N1CCN2C(=O)c3cc(F)c(-c4ccc(F)c5sc(N)c(C#N)c45)c4c(Cl)nn(c34)CC[C@H]2C1 [crystal form C]

hygroscopic weight gain ([2]; accelerated experimental conditions (70% RH)): about 6.44% | crystal form re-identified after DVS testing ([2]; after DVS testing): did not change | hygroscopic weight gain ([2]; extreme conditions (90% RH)): about 6.65% | desorption process of the sample versus its adsorption process ([2]; humidity changing from 0% to 95% RH): did not overlap | hygroscopic weight gain ([2]; normal storage conditions (25 °C and 60% RH)): about 6.35% | Color and state ([1]; 40 °C, 5 days): Off-white solid | Crystal form ([1]; 40 °C, 5 days): Did not change | Purity (%) ([1]; 40 °C, 5 days): 97.8% | Color and state ([1]; 40 °C, 10 days): Off-white solid | Crystal form ([1]; 40 °C, 10 days): Did not change | Purity (%) ([1]; 40 °C, 10 days): 97.5% | Color and state ([1]; 40 °C, 30 days): Off-white solid | Crystal form ([1]; 40 °C, 30 days): Did not change | Purity (%) ([1]; 40 °C, 30 days): 96.7% | Color and state ([1]; 60 °C, 5 days): Off-white solid | Crystal form ([1]; 60 °C, 5 days): Did not change | Purity (%) ([1]; 60 °C, 5 days): 97.8% | Color and state ([1]; 60 °C, 10 days): Off-white solid | Crystal form ([1]; 60 °C, 10 days): Did not change | Purity (%) ([1]; 60 °C, 10 days): 97.7% | Color and state ([1]; 60 °C, 30 days): Off-white solid | Crystal form ([1]; 60 °C, 30 days): Did not change | Purity (%) ([1]; 60 °C, 30 days): 97.3% | Color and state ([1]; 75% RH, 5 days): Off-white solid | Crystal form ([1]; 75% RH, 5 days): Did not change | Purity (%) ([1]; 75% RH, 5 days): 97.9% | Color and state ([1]; 75% RH, 10 days): Off-white solid | Crystal form ([1]; 75% RH, 10 days): Did not change | Purity (%) ([1]; 75% RH, 10 days): 97.9% | Color and state ([1]; 75% RH, 30 days): Off-white solid | Crystal form ([1]; 75% RH, 30 days): Did not change | Purity (%) ([1]; 75% RH, 30 days): 97.9% | Color and state ([1]; 92.5% RH, 5 days): Off-white solid | Crystal form ([1]; 92.5% RH, 5 days): Did not change | Purity (%) ([1]; 92.5% RH, 5 days): 97.9% | Color and state ([1]; 92.5% RH, 10 days): Off-white solid | Crystal form ([1]; 92.5% RH, 10 days): Did not change | Purity (%) ([1]; 92.5% RH, 10 days): 97.9% | Color and state ([1]; 92.5% RH, 30 days): Off-white solid | Crystal form ([1]; 92.5% RH, 30 days): Did not change | Purity (%) ([1]; 92.5% RH, 30 days): 97.9% | Color and state ([1]; Initial, 0 days): Off-white solid | Crystal form ([1]; Initial, 0 days): Crystal form F | Purity (%) ([1]; Initial, 0 days): 97.9% | Color and state [1, 3]: Off-white solid | Crystal form [1, 3]: Did not change | Purity (%) [1, 3]: 97.8% | Color and state [1, 4]: Off-white solid | Crystal form [1, 4]: Did not change | Purity (%) [1, 4]: 97.8% | Color and state [1, 5]: Off-white solid | Crystal form [1, 5]: Did not change | Purity (%) [1, 5]: 97.7%
SMILES: C=CC(=O)N1CCN2C(=O)c3cc(F)c(-c4ccc(F)c5sc(N)c(C#N)c45)c4c(Cl)nn(c34)CC[C@H]2C1 [crystal form F]
